Reference: ChEMBL document CHEMBL1133508, “Syntheses and antimalarial activities of 10-substituted deoxoartemisinins” (2000)

Key:
[1] = tested on: Plasmodium falciparum; assay: In vitro relative activity against chloroquine-sensitive, mefloquine-resistant Plasmodium falciparum D6; assay type: functional
[2] = tested on: Plasmodium falciparum; assay: In vitro activity against chloroquine-resistant, mefloquine-sensitive Plasmodium falciparum W2; assay type: functional

C[C@H]1[C@@H](C[C@H](C)O)O[C@@H]2OC3(C)CC[C@H]4[C@H](C)CC[C@@H]1[C@@]24OO3 (single isomer, unassigned)
Relative activity [1]: 0.98 | Relative activity [2]: 1

C[C@H]1[C@@H](C[C@H](O)C(C)(C)C)O[C@@H]2OC3(C)CC[C@H]4[C@H](C)CC[C@@H]1[C@@]24OO3 (single isomer, unassigned)
Relative activity [1]: 6.8 | Relative activity [2]: 5.4

CC[C@@H](O)C[C@H]1O[C@@H]2OC3(C)CC[C@H]4[C@H](C)CC[C@@H]([C@H]1C)[C@@]24OO3 (single isomer, unassigned)
Relative activity [1]: 5.8 | Relative activity [2]: 4.8

CC(C)C(=O)C[C@H]1O[C@@H]2OC3(C)CC[C@H]4[C@H](C)CC[C@@H]([C@H]1C)[C@@]24OO3 (single isomer, unassigned)
Relative activity [1]: 1.8 | Relative activity [2]: 2.1

CC(=O)C[C@H]1O[C@@H]2OC3(C)CC[C@H]4[C@H](C)CC[C@@H]([C@H]1C)[C@@]24OO3 (single isomer, unassigned)
Relative activity [1]: 2.6 | Relative activity [2]: 1.7

CCC(=O)C[C@H]1O[C@@H]2OC3(C)CC[C@H]4[C@H](C)CC[C@@H]([C@H]1C)[C@@]24OO3 (single isomer, unassigned)
Relative activity [1]: 1 | Relative activity [2]: 1.3

CC(C)[C@@H](O)C[C@H]1O[C@@H]2OC3(C)CC[C@H]4[C@H](C)CC[C@@H]([C@H]1C)[C@@]24OO3 (single isomer, unassigned)
Relative activity [1]: 2.2 | Relative activity [2]: 1.7

C[C@H]1[C@@H](C2C=CC(=O)O2)O[C@@H]2O[C@]3(C)CC[C@H]4[C@H](C)CC[C@@H]1[C@@]24OO3 (some centres not stated)
Relative activity [1]: 0.77 | Relative activity [2]: 0.18

CC(C)[C@H](O)C[C@H]1O[C@@H]2OC3(C)CC[C@H]4[C@H](C)CC[C@@H]([C@H]1C)[C@@]24OO3 (single isomer, unassigned)
Relative activity [1]: 1.4 | Relative activity [2]: 2.3

C[C@H]1[C@@H](C#N)O[C@@H]2OC3(C)CC[C@H]4[C@H](C)CC[C@@H]1[C@@]24OO3 (single isomer, unassigned)
Relative activity [1]: 1.5 | Relative activity [2]: 1.1

CC[C@H](O)C[C@H]1O[C@@H]2OC3(C)CC[C@H]4[C@H](C)CC[C@@H]([C@H]1C)[C@@]24OO3 (single isomer, unassigned)
Relative activity [1]: 2.2 | Relative activity [2]: 3.6

C[C@H]1[C@@H](C[C@@H](C)O)O[C@@H]2OC3(C)CC[C@H]4[C@H](C)CC[C@@H]1[C@@]24OO3 (single isomer, unassigned)
Relative activity [1]: 1.7 | Relative activity [2]: 1.7

C[C@H]1[C@@H](C2CCCC(=O)O2)O[C@@H]2OC3(C)CC[C@H]4[C@H](C)CC[C@@H]1[C@@]24OO3 (single isomer, unassigned)
Relative activity [1]: 1.4 | Relative activity [2]: 2.2

C[C@H]1[C@@H](C2CCCC2=O)O[C@@H]2OC3(C)CC[C@H]4[C@H](C)CC[C@@H]1[C@@]24OO3 (single isomer, unassigned)
Relative activity [1]: 0.91 | Relative activity [2]: 1.6

CCOC(=O)/C=C/C[C@H]1O[C@@H]2OC3(C)CC[C@H]4[C@H](C)CC[C@@H]([C@H]1C)[C@@]24OO3 (single isomer, unassigned)
Relative activity [1]: 1.1 | Relative activity [2]: 1.4

C[C@H]1[C@@H](CC(=O)c2ccccc2)O[C@@H]2OC3(C)CC[C@H]4[C@H](C)CC[C@@H]1[C@@]24OO3 (single isomer, unassigned)
Relative activity [1]: 0.16 | Relative activity [2]: 2.5

C[C@H]1[C@@H](CC(=O)C(C)(C)C)O[C@@H]2OC3(C)CC[C@H]4[C@H](C)CC[C@@H]1[C@@]24OO3 (single isomer, unassigned)
Relative activity [1]: 1.6 | Relative activity [2]: 2.1

C[C@H]1[C@@H](C[C@H](O)C(F)(F)F)O[C@@H]2OC3(C)CC[C@H]4[C@H](C)CC[C@@H]1[C@@]24OO3 (single isomer, unassigned)
Relative activity [1]: 2.5 | Relative activity [2]: 3.1

C[C@H]1[C@@H](C[C@@H](O)C(F)(F)F)O[C@@H]2OC3(C)CC[C@H]4[C@H](C)CC[C@@H]1[C@@]24OO3 (single isomer, unassigned)
Relative activity [1]: 3.1 | Relative activity [2]: 2.4

C[C@H]1[C@@H](C[C@@H](O)C(C)(C)C)O[C@@H]2OC3(C)CC[C@H]4[C@H](C)CC[C@@H]1[C@@]24OO3 (single isomer, unassigned)
Relative activity [1]: 1.6 | Relative activity [2]: 1

C[C@H]1[C@@H](CC=O)O[C@@H]2OC3(C)CC[C@H]4[C@H](C)CC[C@@H]1[C@@]24OO3 (single isomer, unassigned)
Relative activity [1]: 3.5 | Relative activity [2]: 1.8
